From paper PMC10223284, “Category-Based Toxicokinetic Evaluations of Data-Poor Per- and Polyfluoroalkyl Substances (PFAS) using Gas Chromatography Coupled with Mass Spectrometry” (Toxics, 2023)
Read-outs that look alike come from different tables or passages of the source.

Experiment: Hepatic metabolic stability (hepatocyte clearance) assay, substrate depletion
Type: in vitro ADME, human
Conditions: both sexes, human; for half-life at 1 μM: read-out: Linear Regression Results, Best-Fit Values, Half Life
How it was run: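 Substrate depletion of 1 μM compound, 37 °C, with pooled human hepatocytes (50-donor, 50,000 cells/100 μL) in William's E; samples quenched in acetonitrile up to 240 min, triplicate time points. Intrinsic clearance (μL/min/million hepatocytes) and half-life derived from semi-log slope, background-adjusted using media-only and inactivated-cell controls; compounds with ≥50% abiotic loss at T120 excluded.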

[1] = hepatocytes, background-subtracted, read-out: Bkgd-Sub Clearance (µL/min/106 hepatocytes)
[2] = hepatocytes, hepatocyte clearance, Conc 1000 nM, not background adjusted, read-out: Unadj Clint
[3] = hepatocytes, pooled human hepatocyte suspensions, 1 μM, read-out: In Vitro Clint
[4] = hepatocytes, unadjusted hepatocyte intrinsic clearance, read-out: Unadj in vitro Clint
[5] = hepatocytes, hepatocyte time course, NS = slope not significant, read-out: Linear Regression Results, Best-Fit Values, Clearance
[6] = hepatocytes, hepatocyte time course, NS = slope not significant
[7] = s9, Bayesian analysis median, 1 μM assay concentration (Table S9), read-out: Clint.1.Med

Row | Compound | hepatocyte CLint at 1 μM [1] [µL/min/1e6 cells] | hepatocyte CLint at 1 μM [2] [µL/min/1e6 cells] | hepatocyte CLint at 1 μM [3] [µL/min/1e6 cells] | hepatocyte CLint at 1 μM [4] [µL/min/1e6 cells] | hepatocyte CLint at 1 μM [5] [µL/min/1e6 cells] | half-life at 1 μM [6] [min] | hepatocyte CLint at 1 μM [7] [µL/min/1e6 cells] | hepatocyte CLint at 1 μM (hepatocytes, hepatocyte clearance, Conc 1000 nM, background adjusted, read-out: Bkgd Adj Clint) [µL/min/1e6 cells] | hepatocyte CLint at 1 μM (hepatocytes, hepatocyte intrinsic clearance adjusted for background (abiotic) loss, read-out: Bkgd_adj_Clint) [µL/min/1e6 cells]
1 | OCC(F)(F)C(F)(F)C(F)(F)C(F)(F)C(F)(F)C(F)(F)C(F)(F)C(F)(F)CO [1H,1H,10H,10H-Perfluorodecane-1,10-diol] | 56.6 | 56.6 | 49.9 | 56.6 | 56.6 | 24.5 | 115 |  | 
2 | OCCC(F)(F)C(F)(F)C(F)(F)C(F)(F)F [4:2 Fluorotelomer alcohol] | 37.7 | 45.6 | 37.7 | 45.6 | 45.6 | 30.4 | 306 |  | 
3 | NC(=O)C(F)(F)C(F)(F)C(F)(F)F [Heptafluorobutyramide] | 19.9 | 19.9 | 19.9 | 19.9 | 19.9 | 69.5 |  | 19.9 | 19.9
